Results on three compounds are retold here after patent US20220289731A1, “MELANOCORTIN-4 RECEPTOR AGONISTS” (LG CHEM, LTD., priority 2019, published 2022).

The structures appear in SMILES notation. A value given as a limit tells only on which side of the number the result lay.

Data set [1] deals with T1, MC4R (Homo sapiens, UniProt P32245). Description: Luciferase assay (HEK MC4R-Luc, CRE-LUC). Also on record: expressed in transfected cells. The note with it: HEK MC4R-Luc cells, 5 h incubation. It is filed as cell-based. The method, then: In order to measure the agonist ability against MC4R (melanocortin-4 receptor), a cell line that permanently expresses the luciferase gene (CRE-LUC) under the control of MC4R and CRE (cAMP response element) was established. After a mammalian cell expression vector (pCDNA3 (Neo)) (Invitrogen) containing the MC4R gene was prepared, human embryonic kidney (HEK) cell lines were transformed by using Lipofectamine 2000 (Invitrogen) together with a vector (pCRE-Luc)(Stratagen) expressing a luciferase gene (CRE-LUC) under the control of a cAMP response element (CRE). Transformed cell lines (HEK MC4R-Luc) were incubated in a 37° C. incubator in the presence of 5% CO2 for 24 hours by using Dulbecco's Modified Eagles Medium (DMEM) containing 10% Heat-Inactivated Fetal Bovine Serum (GIBCO/BRL). The cell lines were incubated for four days in the presence of Dulbecco's Modified Eagles Medium (DMEM) containing 10 ml of selection medium (10% Heat-Inactivated Fetal Bovine Serum (GIBCO/BRL), 100 unit/ml of penicillin (GIBCO/BRL), 100 unit/ml of streptomycin (GIBCO/BRL), 800 μg/ml of Geneticin (G418) (GIBCO/BRL). The process of removing cells killed by the selection medium by replacing the medium with 10 ml of a new selection medium was repeated three times, once every 4 days. Individual colonies formed by the finally selected and propagated clones were transferred under a microscope to a 24-well cell culture plate containing 1 ml of selection medium per well and incubated for 4 days. Forskolin (SIGMA) was treated to a final concentration of 10 μM, and then incubated for five hours in a 37° C. incubator in the presence of 5% CO2. Each well was treated with 50 μl of a Bright-Glo luciferase reagent (Promega) and left at room temperature for 15 minutes, and then the luminescence of each well was measured by using a luminometer (Victor).
HEK MC4R-Luc cells were added to each well of a 96-well luminometer cell culture plate (Costar) to a size of 2.5×10^4 cells in 100 μl of a culture medium and then incubated in a 37° C. incubator in the presence of 6% CO2 for 18 hours. […] Each well was treated with 50 μl of a Bright-Glo luciferase reagent (Promega) and left at room temperature for five minutes, and then the luminescence of each well was measured by using a luminometer (Victor). […] EC0.5 MSH is expressed as a concentration that induces 50% of the maximum amount of luminescence that can be induced by NDP-α-MSH, and EC50 is expressed as a concentration that induces 50% of the maximum amount of luminescence that can be induced by each agonist. The measurements were measured using statistical software (Prizm).
Target sequence in this assay (P32245 whole entry, species assumed): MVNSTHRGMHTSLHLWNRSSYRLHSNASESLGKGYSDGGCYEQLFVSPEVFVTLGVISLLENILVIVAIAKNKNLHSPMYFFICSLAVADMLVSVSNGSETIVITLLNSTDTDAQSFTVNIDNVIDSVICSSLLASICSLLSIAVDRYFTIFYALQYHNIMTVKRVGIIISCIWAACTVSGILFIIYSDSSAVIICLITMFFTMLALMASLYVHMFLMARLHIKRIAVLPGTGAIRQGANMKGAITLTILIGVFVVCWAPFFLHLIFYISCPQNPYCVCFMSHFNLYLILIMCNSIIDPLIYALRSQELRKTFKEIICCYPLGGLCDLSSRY

In data set [2] the target is T1, MC4R. Description: Binding affinity, 125I-NDP-α-MSH displacement on membranes. On the set-up: expressed in transfected cells; host or cells: HEK-293 cells; membranes collected. The note with it: HEK-293 MC4R membrane, 0.02 nM 125I-NDP-α-MSH. The text has this: Five subtypes of melanocortin receptor (MCR) in vivo are known, and it is known that MC4R, which is Subtype 4, is involved in energy metabolism and weight control. Since other MCR subtypes are involved in the regulation of various functions in vivo such as skin pigmentation, energy homeostasis, and exocrine functions, securing selectivity for MC4R of MC4R agonist compounds is very important in preventing possible side effects in the future. Therefore, the receptor binding abilities of MC4R agonists for each MCR subtype were measured.
After the CHO-K1 cell line expressing human recombinant MC1R and the HEK-293 cell lines expressing MC3R, MC4R and MCSR were established, membranes were collected from each cell line. In a 96-well cell culture plate, 3 μg MC1R membrane and 0.04 nM ^125I-NDP-α-MSH per well were reacted at 37° C. for two hours. 3 μg MC3R and MCSR membrane and 0.035 nM ^125I-NDP-α-MSH were reacted at 37° C. for one hour, and 3.12 μg MC4R membrane and 0.02 nM ^125I-NDP-α-MSH were reacted at 37° C. for two hours. At this time, 25 mM HEPES-KOH adsorption buffer (pH 7.0) containing MCR agonist diluted at each step concentration was added to each well and reacted. The reacted solution was transferred to a filter and washed with an adsorption buffer, and then radioactivity was measured. The value excluding the non-specific binding amount in the presence of 1 μM (MC1R) and 3 μM (MC3R, MC4R, MCSR) of NDP-α-MSH from each total binding amount was used as specific binding amounts of ^125I-NDP-α-MSH. The degree to which the ^125I-NDP-α-MSH specific binding was inhibited by the agonist diluted at each step concentration was measured. IC50 was expressed as the concentration of each agonist that inhibited specific binding of 50% of ^125I-NDP-α-MSH.
Target sequence in this assay (P32245 whole entry): as the sequence (P32245 whole entry, species assumed) above

The target of the next data set is CYP2D6 (Homo sapiens, UniProt P10635). Description: CYP inhibition, recombinant enzyme, fluorescence. It is filed as in vitro ADME. The settings on record: recombinant CYP2D6, pH 7.4, 10 μM compound, 30 min pre-incubation, read-out: CYP inhibition (%) at 10 μM, 2D6. The method, then: (§1) The following Table 8 was referred for the use of a probe substrate, positive control, and isozyme and measurement conditions with respect to the measurement of the inhibitory ability of each substance. [table] […] The buffer spiked with experimental compound was mixed with the same volume of CYP isozyme prep solution so that the final concentration was 10 μM, followed by pre-warming for 10 minutes in a 37° C. fluorescence plate-reader. Each well NRS solution (NADPH Regeneration System: 0.22 mM β-NADP, 2.8 mM glucose-6-phosphate, and 0.6 units/mL of glucose-6-phosphate dehydrogenase) was added, followed by pre-incubation for 30 minutes. Thereafter, the reaction was initiated by adding the substrate to the well subjected to pre-incubation and monitored at intervals of one minute at the measurement wavelength for each substrate for 30 minutes. The measured values obtained from the positive control and the compound of Example 1 were compared with the fluorescence intensity of a negative control (no inhibition or compound) to confirm the inhibitory ability of each compound against isozyme. Inhibitory activity (%) was expressed based on the following criteria: […]
CYP2D6, sequence (P10635 whole entry): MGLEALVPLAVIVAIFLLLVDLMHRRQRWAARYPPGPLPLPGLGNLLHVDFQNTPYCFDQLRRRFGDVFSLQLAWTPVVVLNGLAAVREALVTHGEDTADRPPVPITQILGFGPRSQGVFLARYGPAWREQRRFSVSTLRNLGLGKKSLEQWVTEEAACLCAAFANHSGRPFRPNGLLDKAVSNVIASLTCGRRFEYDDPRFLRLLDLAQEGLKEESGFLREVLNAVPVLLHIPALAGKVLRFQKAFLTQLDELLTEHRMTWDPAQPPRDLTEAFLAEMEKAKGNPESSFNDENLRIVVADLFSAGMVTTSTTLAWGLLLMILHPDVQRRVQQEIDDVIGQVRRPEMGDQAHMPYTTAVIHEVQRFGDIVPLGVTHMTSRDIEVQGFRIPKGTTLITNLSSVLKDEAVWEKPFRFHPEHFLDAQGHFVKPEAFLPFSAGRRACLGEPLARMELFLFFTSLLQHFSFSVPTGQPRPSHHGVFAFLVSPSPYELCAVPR

Another data set concerns the target CYP2C19 (Homo sapiens, UniProt P33261). Description: CYP inhibition, recombinant enzyme, fluorescence. The note with it: recombinant CYP2C19, pH 7.4, 10 μM compound, 30 min pre-incubation, read-out: CYP inhibition (%) at 10 μM, 2C19. It is filed as in vitro ADME. The method, then:
as §1

The next data set deals with CYP2C9 (Homo sapiens, UniProt P11712). Briefly: CYP inhibition, recombinant enzyme, fluorescence. The note with it: 10 μM compound; for inhibition at 30 min, 10 µM: human, recombinant CYP2C9, pH 7.4, 30 min pre-incubation, read-out: CYP inhibition (%) at 10 μM, 2C9. It is filed as in vitro ADME. The method, then:
as §1

What is called EC50 is the concentration that produces a half-maximal response. A lower EC50 goes with greater potency. A word on the Ki: it is the dissociation constant of the complex between target and ligand, obtained from inhibition or displacement. The low end stands for tighter binding, the high end for weaker binding. Usually inhibition stands for the relative decrease from the control value, in per cent.

CYP2C9, sequence (P11712 whole entry): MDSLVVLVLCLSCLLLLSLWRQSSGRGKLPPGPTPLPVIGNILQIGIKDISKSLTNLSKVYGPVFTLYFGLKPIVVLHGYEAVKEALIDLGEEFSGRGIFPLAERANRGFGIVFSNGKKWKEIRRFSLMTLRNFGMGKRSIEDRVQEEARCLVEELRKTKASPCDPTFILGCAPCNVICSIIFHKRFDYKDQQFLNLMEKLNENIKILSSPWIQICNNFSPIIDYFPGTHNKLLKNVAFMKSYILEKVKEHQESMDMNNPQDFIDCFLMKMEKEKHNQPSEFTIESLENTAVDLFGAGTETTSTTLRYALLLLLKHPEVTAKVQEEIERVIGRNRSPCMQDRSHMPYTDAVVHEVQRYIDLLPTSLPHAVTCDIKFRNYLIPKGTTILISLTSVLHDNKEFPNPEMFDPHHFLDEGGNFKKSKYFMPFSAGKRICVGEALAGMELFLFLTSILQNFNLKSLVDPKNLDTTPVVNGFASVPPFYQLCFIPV
CYP2C19, sequence (P33261 whole entry): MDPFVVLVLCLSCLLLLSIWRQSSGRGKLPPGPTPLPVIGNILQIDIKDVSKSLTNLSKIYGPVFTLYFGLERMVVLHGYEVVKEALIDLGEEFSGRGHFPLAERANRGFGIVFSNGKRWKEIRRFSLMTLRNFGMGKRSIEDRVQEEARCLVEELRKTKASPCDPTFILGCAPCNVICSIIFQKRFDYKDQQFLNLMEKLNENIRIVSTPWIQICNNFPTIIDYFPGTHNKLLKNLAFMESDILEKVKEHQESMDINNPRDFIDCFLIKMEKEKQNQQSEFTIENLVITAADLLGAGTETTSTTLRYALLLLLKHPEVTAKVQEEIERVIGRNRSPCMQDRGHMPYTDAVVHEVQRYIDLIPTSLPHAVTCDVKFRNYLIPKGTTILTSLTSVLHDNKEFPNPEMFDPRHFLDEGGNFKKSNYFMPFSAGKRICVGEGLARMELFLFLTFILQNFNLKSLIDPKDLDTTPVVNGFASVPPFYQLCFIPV

The compound `CC(=O)N(C1CCC(C)(C)CC1)[C@H]1C[C@@H](C(=O)N2CCOCC2)N(C(=O)[C@@H]2CN(C(C)(C)C)C[C@H]2c2ccc(F)cc2F)C1.Cl` [Comparative Example 1 (A95), N-((3S,5S)-1-((3S,4R)-1-(tert-butyl)-4-(2,4-difluorophenyl)pyrrolidine-3-carbonyl)-5-(morpholine-4-carbonyl)pyrrolidin-3-yl)-N-(4,4-dimethylcyclohexyl)acetamide hydrochloride] displayed a concentration for a half-maximal effect (EC50) on MC4R [1] of 17.4 nM. At MC4R [2], the inhibition constant Ki was found to be 1400 nM.
With `CC(=O)N(C1CCC(C)(C)CC1)[C@H]1C[C@@H](C(=O)N2CCOCC2)N(C(=O)[C@@H]2CN(C(C)(C)C)C[C@H]2c2ccc(Cl)cc2)C1.Cl` [Comparative Example 2 (A96), N-((3S,5S)-1-((3S,4R)-1-(tert-butyl)-4-(4-chlorophenyl)pyrrolidine-3-carbonyl)-5-(morpholine-4-carbonyl)pyrrolidin-3-yl)-N-(4,4-dimethylcyclohexyl)acetamide hydrochloride], the 50% effective concentration (EC50) at MC4R [1] came to 5.48 nM. The values for the inhibition at 30 min, 10 µM at CYP2D6, on CYP2C19 and at CYP2C9 were under 50%, under 50% and over 50%, respectively. The “Inhibitory ability against CYP2C9 (in words)” value at CYP2C9 is “very high inhibitory ability”. In addition, at MC4R [2], the inhibitory constant (Ki) came out at 360 nM.
With `CC(C)C(=O)N([C@H]1C[C@@H](C(=O)N2CCOCC2)N(C(=O)[C@@H]2CN(C(C)(C)C)C[C@H]2c2ccc(Cl)cc2)C1)[C@H]1CC[C@@H](C)CC1.Cl` [Example 1, N-((3S,5S)-1-((3S,4R)-1-(tert-butyl)-4-(4-chlorophenyl)pyrrolidine-3-carbonyl)-5-(morpholine-4-carbonyl)pyrrolidin-3-yl)-N-((1s,4R)-4-methylcyclohexyl)isobutyramide hydrochloride], on MC4R [1], the concentration for a half-maximal effect (EC50) came out at 0.562 nM. In addition, the inhibition at 30 min, 10 µM at CYP2D6, at CYP2C19 and at CYP2C9 was under 50% throughout. The inhibition constant Ki on MC4R [2] was 65 nM.
